pKi: −log10 of the molar value.
Columns and labels:
[1] = biological target: T1, human 5-HT1A serotonergic receptor (Homo sapiens, UniProt P08908); experiment: Radioreceptor binding to recombinant human 5-HT1A receptors ([3H]8-OH-DPAT, HeLa cell membranes); details: recombinant human receptor in HeLa membranes, [3H]8-OH-DPAT; read-out: Ki 5-HT1A
T1 construct: expressed in transfected cells; host or cells: HeLa (human), stably transfected; cell membranes
T1 sequence (P08908 1-422): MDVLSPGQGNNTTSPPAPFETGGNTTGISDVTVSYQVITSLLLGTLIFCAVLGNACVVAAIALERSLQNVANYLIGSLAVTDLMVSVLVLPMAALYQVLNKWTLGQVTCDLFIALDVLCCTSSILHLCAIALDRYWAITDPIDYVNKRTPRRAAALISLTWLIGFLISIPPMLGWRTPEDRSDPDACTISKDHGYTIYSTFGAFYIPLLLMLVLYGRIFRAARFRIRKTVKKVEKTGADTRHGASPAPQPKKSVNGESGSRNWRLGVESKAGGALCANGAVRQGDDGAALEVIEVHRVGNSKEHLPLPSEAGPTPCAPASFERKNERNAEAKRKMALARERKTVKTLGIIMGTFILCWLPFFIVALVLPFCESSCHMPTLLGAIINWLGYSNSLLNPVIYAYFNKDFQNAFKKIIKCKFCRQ
Procedure: Genomic clone G-21 coding for the human 5-HT1A serotonergic receptor is stably transfected in a human cell line (HeLa). HeLa cells were grown as monolayers in Dulbecco's modified Eagle's medium (DMEM), supplemented with 10% fetal calf serum and gentamicin ([…]), 5% CO2 at 37° C. Cells were detached from the growth flask at 95% confluence by a cell scraper and were lysed in ice-cold 5 mM Tris and 5 mM EDTA buffer (pH 7.4). Homogenates were centrifuged at 40000×g×20 min and pellets were resuspended in a small volume of ice-cold 5 mM Tris and 5 mM EDTA buffer (pH 7.4) and immediately frozen and stored at −70° C. until use. On the day of experiment, cell membranes were resuspended in binding buffer: 50 mM Tris HCl (pH 7.4), 2.5 mM MgCl2, 10 μM pargyline (Fargin et al., Nature 335, 358-360, 1988). Membranes were incubated in a final volume of 1 ml for 30 min at 30° C. with 0.2-1 nM [^3H]8-OH-DPAT, in absence or presence of competing drugs; non-specific binding was determined in the presence of 10 μM 5-HT. The incubation was stopped by addition of ice-cold Tris-HCl buffer and rapid filtration through 0.2% polyethyleneimine-pretreated Whatman GF/B or Schleieher & Schuell GF52 filters.
(§1) The inhibition of specific binding of the radioligands by the tested drugs was analyzed to estimate the IC50 value by using the non-linear curve-fitting program Allfit (De Lean et al., Am. J. Physiol. 235, E97-E102, 1978). The IC50 value is converted to an affinity constant (Ki) by the equation of Cheng & Prusoff (Cheng, Y. C.; Prusoff, W. H. Biochem. Pharmacol. 22, 3099-3108, 1973).

[2] = biological target: T2, 5-HT2A serotonergic receptors (Rattus norvegicus, UniProt P14842); experiment: Radioreceptor binding to native 5-HT2A serotonergic receptors ([3H]ketanserin, rat cerebral cortex membranes); details: rat cerebral cortex membranes, [3H]ketanserin; read-out: Ki 5-HT2A
T2 construct: from tissue; host or cells: cerebral cortex of male Sprague Dawley rats, membranes
Procedure: Binding studies on native 5-HT2A serotonergic receptors (Craig A. and Kenneth J., Life Sci. 38, 117-127, 1986) were carried out in membranes of rat cerebral cortex. Male Sprague Dawley rats (200-300 g, S D Harlan/Nossan, Italy) were killed by cervical dislocation and cerebral cortexes were excised and immediately frozen in liquid nitrogen and stored at −70° C. until use. Tissues were homogenized (2×20 sec) in 50 volumes of cold 50 mM Tris-HCl buffer pH 7.4, using a Polytron homogenizer (speed 7). Homogenates were centrifuged at 49000×g for 10 min, resuspended in 50 volumes of the same buffer, incubated at 37° C. for 15 min and centrifuged and resuspended twice more. The final pellets were suspended in 100 volumes of 50 mM Tris-HCl buffer pH 7.7. Membranes were incubated in a final volume of 1 ml for 20 min at 37° C. with 0.7-1.3 nM [^3H]ketanserin (5-HT2A receptors), in absence or presence of competing drugs. Non-specific binding was determined in the presence of 2 μM ketanserin. The incubation was stopped by addition of ice-cold 50 mM Tris-HCl buffer and rapid filtration through 0.2% polyethyleneimine pretreated Whatman GF/B or Schleicher & Schuell GF52 filters. The filters are then washed with ice-cold buffer and the radioactivity retained on the filters was counted by liquid scintillation spectrometry.
as §1

[3] = system: rhythmic bladder voiding contractions; experiment: Volume-induced rhythmic bladder voiding contractions in anaesthetized rats; type: in vivo, rat; details: intravenous administration, anaesthetized rats; for ED50: Rattus norvegicus, extrapolated dose inducing a reduction of the number of contractions >30% in 50% of treated rats, read-out: ED50 (frequency); for ED10min: extrapolated dose inducing 10 min of disappearance of the contractions
Procedure: Female Sprague Dawley rats weighing 225-275 g (Crl: CDo BR, Charles River Italia) were used. The animals were housed with free access to food and water and were maintained on a forced 12 h alternating light-dark cycle at 22-24° C. for at least one week, except during the experiment. The activity on the rhythmic bladder voiding contractions was evaluated according to the method of Dray (J. Pharmacol. Methods, 13:157, 1985), with some modifications as in Guarneri (Pharmacol. Res., 27:173, 1993). Briefly, rats were anesthetized by subcutaneous injection of 1.25 g/kg (5 ml/kg) urethane, after which the urinary bladder was catheterized via the urethra using PE 50 polyethylene tubing filled with physiological saline. The catheter was tied in place with a ligature around the external urethral orifice and was connected with conventional pressure transducers (Statham P23 ID/P23 XL). […] The bladder was then filled via the recording catheter by incremental volumes of warm (37° C.) saline until reflex bladder voiding contractions occurred (usually 0.8-1.5 ml). For intravenous (i.v.) injection of bioactive compounds, PE 50 polyethylene tubing filled with physiological saline was inserted into the jugular vein.
From the cystometrogram, the number of contractions recorded 15 min before (basal values) and after treatment, as well as the mean amplitude of these contractions (mean height of the peaks in mm Hg) was evaluated.
Since most compounds produced an effect that was relatively rapid in onset and led to a complete cessation of bladder contractions, bioactivity was conveniently estimated by measuring the duration of bladder quiescence (i.e., the duration of time during which no contractions occurred). Moreover, the number of animals tested showing a reduction in the number of contractions >30% of that observed in the basal period, was recorded. […] Also computed in this manner were extrapolated doses which induced a reduction of the number of contractions of greater than 30% in 50% of treated rats (ED50, frequency) by the method of Bliss (Bliss C. I., Quart. J. Pharm. Pharmacol. 11, 192-216, 1938). After the suppressive effects of drug injection wore off, the height of the contractile peaks was compared with the height of the peaks previously recorded after the control intravenous administration of vehicle. The potency of the tested compounds (ED50 value, the extrapolated doses inducing a 30% reduction of amplitude of the contractions in 50% of treated rats) was evaluated on a quantal basis by the method of Bliss (Bliss C. I., Quart. J. Pharm. Pharmacol. 11, 192-216, 1938).

[4] = biological target: α1 adrenergic receptors; experiment: Radioreceptor binding to native α1 adrenergic receptors ([3H]prazosin, rat cerebral cortex membranes)
Procedure: Binding studies on native α1 adrenergic receptors were carried out in membranes of rat cerebral cortex. Male Sprague Dawley rats (200-300 g, Charles River, Italy) were killed by cervical dislocation and cerebral cortexes were dissected and immediately frozen and stored at −70° C. until use. Tissue was homogenized (2×20 sec) in 50 volumes of cold 50 mM Tris-HCl buffer pH 7.4, using a Polytron homogenizer (speed 7). Homogenates were centrifuged at 48000×g for 10 min, resuspended in 50 volumes of the same buffer, incubated at 37° C. for 15 min and centrifuged and resuspended twice more. The final pellets were suspended in 100 volumes of 50 mM Tris-HCl buffer pH 7.4, containing 10 μM pargyline and 0.1% ascorbic acid. Membranes were incubated in a final volume of 1 ml for 30 min at 25° C. with 0.1-0.5 nM [^3H]prazosin, in the absence or presence of competing drugs; non-specific binding was determined in the presence of 10 μM phentolamine.
The incubation was stopped by addition of ice-cold 50 mM Tris-HCl buffer and rapid filtration through 0.2% polyethyleneimine-pretreated Whatman GF/B or Schleicher & Schuell GF52 filters. The filters were then washed with ice-cold buffer and the radioactivity retained on the filters counted by liquid scintillation spectrometry.
as §1

T2 sequence (P14842 whole entry): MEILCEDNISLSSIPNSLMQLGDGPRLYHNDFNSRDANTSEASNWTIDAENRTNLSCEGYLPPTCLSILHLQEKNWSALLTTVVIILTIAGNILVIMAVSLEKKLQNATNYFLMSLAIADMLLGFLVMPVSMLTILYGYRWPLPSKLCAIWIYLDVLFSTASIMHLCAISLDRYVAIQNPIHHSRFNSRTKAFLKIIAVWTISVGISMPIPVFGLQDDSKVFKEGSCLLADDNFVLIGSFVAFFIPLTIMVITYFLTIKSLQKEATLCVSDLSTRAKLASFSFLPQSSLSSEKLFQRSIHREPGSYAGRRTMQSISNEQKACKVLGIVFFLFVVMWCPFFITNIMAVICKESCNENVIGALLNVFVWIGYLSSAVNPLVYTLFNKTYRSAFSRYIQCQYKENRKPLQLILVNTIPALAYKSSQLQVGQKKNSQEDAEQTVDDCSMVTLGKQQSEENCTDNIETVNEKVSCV

SMILES: COc1ccccc1N1CCN(CCC(c2ccccn2)c2ccccn2)CC1 [Ex. 8, 1-[3,3-bis-(2-pyridyl)propyl]-4-(2-methoxyphenyl)piperazine]
- pKi [1]: 8.40
- pKi [2]: 6.49
- ED50 [3]: 0.0025 mg/kg
- ED10min [3]: 74 µg/kg
- pKi [4]: 6.72

SMILES: COc1ccccc1N1CCN(CCC(c2ccccc2)c2ccccn2)CC1 (stereo not shown) [Ex. 9, 1-[3-phenyl-3-(2-pyridyl)propyl]-4-(2-methoxyphenyl)piperazine]
- pKi [1]: 9.21
- pKi [2]: 5.99
- ED50 [3]: 0.025 mg/kg
- ED10min [3]: 77 µg/kg
- pKi [4]: 6.57
